What was measured:
Experiment in all cases: KiNativ profiling in human PBMCs
Type in all cases: binding
AKT2,AKT3 = settings: ATP Loop
Method in brief: (§1)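 After live treatment with either 0.1 µM or 1 µM compound, human peripheral blood mononuclear cells underwent KiNativ kinase profiling to compare engagement and selectivity.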

FER = test system: T1, FER
T1 construct: purchased ActivX Technologies (KiNativ)
Method in brief: as §1

GCK = test system: T2, GCK
T2 construct: purchased ActivX Technologies (KiNativ)
Method in brief: as §1

GSK3B = test system: T3, GSK3B; settings: Lys2
T3 construct: purchased ActivX Technologies (KiNativ)
Method in brief: as §1

IKKa = test system: T4, IKKa; settings: Lys2
T4 construct: purchased ActivX Technologies (KiNativ)
Method in brief: as §1

MAP2K3 = test system: T5, MAP2K3
T5 construct: purchased ActivX Technologies (KiNativ)
Method in brief: as §1

MAP2K4 = test system: T6, MAP2K4
T6 construct: purchased ActivX Technologies (KiNativ)
Method in brief: as §1

MAP2K5 = test system: T7, MAP2K5
T7 construct: purchased ActivX Technologies (KiNativ)
Method in brief: as §1

MST1,MST2 = settings: Lys2
Method in brief: as §1

MST2 = test system: T8, MST2; settings: Lys1
T8 construct: purchased ActivX Technologies (KiNativ)
Method in brief: as §1

MST4,YSK1 = settings: Lys2
Method in brief: as §1

PCTAIRE2 = test system: T9, PCTAIRE2; settings: Lys2
T9 construct: purchased ActivX Technologies (KiNativ)
Method in brief: as §1

PI4KB = test system: T10, PI4KB; settings: ATP
T10 construct: purchased ActivX Technologies (KiNativ)
Method in brief: as §1

RSK1 domain2 = test system: T11, RSK1 domain2; settings: Lys2
T11 construct: RSK1 domain2; purchased ActivX Technologies (KiNativ)
Method in brief: as §1

SLK = test system: T12, SLK
T12 construct: purchased ActivX Technologies (KiNativ)
Method in brief: as §1

SYK = test system: T13, SYK
T13 construct: purchased ActivX Technologies (KiNativ)
Method in brief: as §1

TAO2 = test system: T14, TAO2; settings: Lys2
T14 construct: purchased ActivX Technologies (KiNativ)
Method in brief: as §1

Cc1cccc(-c2cc(Nc3ccn(C)n3)nc3[nH]cc(C#N)c23)c1 [Lu AF58786]
Inhibition (AKT2,AKT3; 0.1µM): -0.7% | Inhibition (AKT2,AKT3; 1µM): -7.3% | Inhibition (FER; 0.1µM, Activation Loop): -5.4% | Inhibition (FER; 0.1µM, Lys1): 1.7% | Inhibition (FER; 1µM, Activation Loop): -16.1% | Inhibition (FER; 1µM, Lys1): 5.0% | Inhibition (GCK; 0.1µM, Lys1): 14.1% | Inhibition (GCK; 0.1µM, Lys2): 16.9% | Inhibition (GCK; 1µM, Lys1): 5.5% | Inhibition (GCK; 1µM, Lys2): -3.1% | Inhibition (GSK3B; 0.1µM): 9.9% | Inhibition (GSK3B; 1µM): 21.4% | Inhibition (IKKa; 0.1µM): 9.8% | Inhibition (IKKa; 1µM): 6.8% | Inhibition (MAP2K3; 0.1µM, Lys1): -31.6% | Inhibition (MAP2K3; 0.1µM, Lys2): -1.9% | Inhibition (MAP2K3; 1µM, Lys1): -37.3% | Inhibition (MAP2K3; 1µM, Lys2): 0.27% | Inhibition (MAP2K4; 1µM, Lys2): -0.124% | Inhibition (MAP2K5; 0.1µM, Lys2): -0.318% | Inhibition (MAP2K5; 1µM, Lys2): 17.4% | Inhibition (MST1,MST2; 0.1µM): 6.3% | Inhibition (MST1,MST2; 1µM): 4.8% | Inhibition (MST2; 1µM): 11.8% | Inhibition (MST4,YSK1; 0.1µM): 22.5% | Inhibition (MST4,YSK1; 1µM): 4.6% | Inhibition (PCTAIRE2; 0.1µM): 18.1% | Inhibition (PCTAIRE2; 1µM): -0.164% | Inhibition (PI4KB; 0.1µM): 15.3% | Inhibition (PI4KB; 1µM): 6.2% | Inhibition (RSK1 domain2; 0.1µM): 11.6% | Inhibition (RSK1 domain2; 1µM): 5.6% | Inhibition (SLK; 0.1µM, Lys1): -13.3% | Inhibition (SLK; 0.1µM, Lys2): 8.0% | Inhibition (SLK; 1µM, Lys1): 25.5% | Inhibition (SLK; 1µM, Lys2): -7.2% | Inhibition (SYK; 0.1µM, Activation Loop): 8.3% | Inhibition (SYK; 0.1µM, Lys1): 12.8% | Inhibition (SYK; 1µM, Lys1): -5.9% | Inhibition (TAO2; 0.1µM): 17.3% | Inhibition (TAO2; 1µM): 18.3%

Cn1cc(-c2c[nH]c3ncnc(N4CCOCC4)c23)cc1C#N [PFE-360]
% Inhibition (AKT2,AKT3; 0.1µM): -2.2% | % Inhibition (AKT2,AKT3; 1µM): -5.2% | % Inhibition (FER; 0.1µM, Activation Loop): 10% | % Inhibition (FER; 0.1µM, Lys1): -2% | % Inhibition (FER; 1µM, Activation Loop): 4.9% | % Inhibition (FER; 1µM, Lys1): -3.4% | % Inhibition (GCK; 0.1µM, Lys1): 7.4% | % Inhibition (GCK; 0.1µM, Lys2): 6.5% | % Inhibition (GCK; 1µM, Lys1): 11.4% | % Inhibition (GCK; 1µM, Lys2): -7.7% | % Inhibition (GSK3B; 0.1µM): 11.2% | % Inhibition (GSK3B; 1µM): 14.9% | % Inhibition (IKKa; 0.1µM): 17.9% | % Inhibition (IKKa; 1µM): 15.8% | % Inhibition (MAP2K3; 0.1µM, Lys1): -7.9% | % Inhibition (MAP2K3; 0.1µM, Lys2): 9.4% | % Inhibition (MAP2K3; 1µM, Lys1): 11.1% | % Inhibition (MAP2K3; 1µM, Lys2): -11.7% | % Inhibition (MAP2K4; 0.1µM, Lys1): -7.3% | % Inhibition (MAP2K4; 0.1µM, Lys2): 7.4% | % Inhibition (MAP2K4; 1µM, Lys1): 11% | % Inhibition (MAP2K4; 1µM, Lys2): -3.8% | % Inhibition (MAP2K5; 0.1µM, Lys1): 4.7% | % Inhibition (MAP2K5; 0.1µM, Lys2): -4.6% | % Inhibition (MAP2K5; 1µM, Lys1): -10.3% | % Inhibition (MAP2K5; 1µM, Lys2): 31.9% | % Inhibition (MST1,MST2; 0.1µM): 15% | % Inhibition (MST1,MST2; 1µM): 39.1% | % Inhibition (MST2; 0.1µM): 15.1% | % Inhibition (MST2; 1µM): 48% | % Inhibition (MST4,YSK1; 0.1µM): -0.2% | % Inhibition (MST4,YSK1; 1µM): -16.6% | % Inhibition (PCTAIRE2; 0.1µM): -2.4% | % Inhibition (PCTAIRE2; 1µM): -5.2% | % Inhibition (PI4KB; 0.1µM, peptide LLSVIVKCGDDLRQELLAFQVLK): -14.7% | % Inhibition (PI4KB; 0.1µM, peptide VPHTQAVVLNSKDK): 3.6% | % Inhibition (PI4KB; 1µM, peptide LLSVIVKCGDDLRQELLAFQVLK): -10.6% | % Inhibition (PI4KB; 1µM, peptide VPHTQAVVLNSKDK): -12.4% | % Inhibition (RSK1 domain2; 0.1µM): -5.4% | % Inhibition (RSK1 domain2; 1µM): -11.2% | % Inhibition (SLK; 0.1µM, Lys1): 3.8% | % Inhibition (SLK; 0.1µM, Lys2): 4.8% | % Inhibition (SLK; 1µM, Lys1): 22.3% | % Inhibition (SLK; 1µM, Lys2): -8.4% | % Inhibition (SYK; 0.1µM, Activation Loop): 1.9% | % Inhibition (SYK; 0.1µM, Lys1): 0.1% | % Inhibition (SYK; 1µM, Activation Loop): -4.4% | % Inhibition (SYK; 1µM, Lys1): -13% | % Inhibition (TAO2; 0.1µM): 1.1% | % Inhibition (TAO2; 1µM): -26.1%

From article PMC5578959, “Selective LRRK2 kinase inhibition reduces phosphorylation of endogenous Rab10 and Rab12 in human peripheral mononuclear blood cells” (Scientific Reports, 2017)
